The target of one test is EGFR (UniProt P00533). The following applies: concentration not given here.
In another test the target is EGFR (human) (UniProt P00533). Conditions: for IC50: mda-mb-468; for inhibition: mda-mb-468, concentration not given here.
EGFR (human), sequence (P00533 whole entry, looked up): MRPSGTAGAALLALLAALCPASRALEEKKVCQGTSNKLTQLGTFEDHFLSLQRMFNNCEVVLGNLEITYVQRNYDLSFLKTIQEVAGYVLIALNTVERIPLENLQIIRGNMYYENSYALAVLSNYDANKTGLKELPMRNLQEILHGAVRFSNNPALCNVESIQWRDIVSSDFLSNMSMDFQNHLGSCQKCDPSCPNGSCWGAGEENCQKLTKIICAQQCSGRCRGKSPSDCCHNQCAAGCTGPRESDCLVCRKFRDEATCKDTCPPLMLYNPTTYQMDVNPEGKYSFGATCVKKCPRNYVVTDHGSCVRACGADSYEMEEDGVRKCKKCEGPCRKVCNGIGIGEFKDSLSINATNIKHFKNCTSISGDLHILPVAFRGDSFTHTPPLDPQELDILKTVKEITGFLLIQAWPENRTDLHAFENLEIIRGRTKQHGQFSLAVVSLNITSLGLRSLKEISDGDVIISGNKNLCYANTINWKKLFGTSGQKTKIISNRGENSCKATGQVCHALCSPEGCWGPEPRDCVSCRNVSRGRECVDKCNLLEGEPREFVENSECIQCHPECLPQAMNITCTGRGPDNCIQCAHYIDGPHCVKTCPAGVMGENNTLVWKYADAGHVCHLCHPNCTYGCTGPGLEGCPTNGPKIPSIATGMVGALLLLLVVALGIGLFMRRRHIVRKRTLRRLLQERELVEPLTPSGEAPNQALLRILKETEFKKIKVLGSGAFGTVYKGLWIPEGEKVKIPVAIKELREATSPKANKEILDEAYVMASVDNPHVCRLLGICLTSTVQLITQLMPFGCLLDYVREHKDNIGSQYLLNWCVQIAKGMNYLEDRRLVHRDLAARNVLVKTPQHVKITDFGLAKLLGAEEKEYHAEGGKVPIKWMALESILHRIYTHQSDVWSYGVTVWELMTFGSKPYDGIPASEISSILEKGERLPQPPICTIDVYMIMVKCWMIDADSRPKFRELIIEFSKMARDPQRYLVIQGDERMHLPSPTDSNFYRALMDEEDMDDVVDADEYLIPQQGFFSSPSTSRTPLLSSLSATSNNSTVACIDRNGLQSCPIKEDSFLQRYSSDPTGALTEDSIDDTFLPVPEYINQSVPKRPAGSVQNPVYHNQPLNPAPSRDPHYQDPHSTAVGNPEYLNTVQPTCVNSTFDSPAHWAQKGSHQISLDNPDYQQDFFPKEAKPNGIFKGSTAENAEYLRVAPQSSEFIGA

EGFR, sequence (P00533 whole entry, looked up): as above

Consider `O=[N+]([O-])c1ccc(Nc2ccccc2)c2c(O)ncnc12`, for which, on EGFR, the inhibition turned out to be 17.7%. This compound yielded an IC50 against EGFR (human) of 0.48 µM.
Take `Cc1cccc(Nc2ccc([N+](=O)[O-])c3ncnc(O)c23)c1`: the inhibition on EGFR came to 0%; at EGFR (human) it was 15.2%.
In the case of `COc1ccc([N+](=O)[O-])c2ncnc(O)c12`, the inhibition against EGFR is 0%; against EGFR (human), 35.8%.
Regarding `CCOc1ccc([N+](=O)[O-])c2ncnc(O)c12`, the inhibition against EGFR worked out at 3.9%; against EGFR (human), 32.3%.
For `CSCC[C@@H](Nc1ccc([N+](=O)[O-])c2ncnc(O)c12)C(=O)O`, the inhibition on EGFR is 5.6%; against EGFR (human) it was 19.9%.
Compound `O=[N+]([O-])c1ccc(Nc2ccc(OCc3ccccc3)cc2)c2c(O)ncnc12` registered an inhibition at EGFR of 21.1%. The compound further registered an IC50 against EGFR (human) of 4.2 µM.
As for `O=[N+]([O-])c1ccc(N2CCCC2)c2c(O)ncnc12`, the inhibition against EGFR is 0%; against EGFR (human), 23.3%.
`COC(=O)C#Cc1ccc([N+](=O)[O-])cc1` returned an inhibition at EGFR of 28%.
On to `O=[N+]([O-])c1ccc(N2CC=CC2)c2c(O)ncnc12`, for which the results for the inhibition against EGFR and on EGFR (human) were 7.9% and 34.6%, respectively.
For `O=[N+]([O-])c1ccc(Nc2ccc(Cl)cc2)c2c(O)ncnc12` the same measures were 18.3% and 28.6%.
`O=C(O)[C@H](Nc1ccc([N+](=O)[O-])c2ncnc(O)c12)c1ccccc1`: the inhibition against EGFR came to 6.5%; on EGFR (human), 29.2%.
As to `Nc1ccc(Nc2ccc([N+](=O)[O-])c3ncnc(O)c23)cc1`, the inhibition on EGFR worked out at 0%. The IC50 at EGFR (human) turned out to be 4 µM.
`O=[N+]([O-])c1ccc(Nc2cccc(Cl)c2)c2c(O)ncnc12` registered an inhibition against EGFR of 17.1%. Moreover, at EGFR (human), the IC50 was above 10 µM and the inhibition was 32.5%.
For the compound `O=[N+]([O-])c1ccc(NCc2ccccc2)c2c(O)ncnc12`, the inhibition against EGFR was found to be 5.2%; against EGFR (human), 12.1%.
The compound `COc1ccc(Nc2ccc([N+](=O)[O-])c3ncnc(O)c23)cc1` yielded an inhibition against EGFR of 12.2%. On EGFR (human), this compound had an IC50 below 0.01 µM and an inhibition of 75.5%.
